Measured values taken from PubChem BioAssay (NCI).
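The compound was tested at five concentrations on cells cultured in 96-well plates, with a 48-hour exposure period. At the TGI there is no net growth.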

Columns and labels:
Test in all cases: NCI tumour cell line growth inhibition, 48 h
NCI-H23 lung = system: NCI-H23 lung
CCRF-CEM leukemia = system: CCRF-CEM leukemia
HCC-2998 colon = system: HCC-2998 colon
SK-OV-3 ovarian = system: SK-OV-3 ovarian
MALME-3M melanoma = system: MALME-3M melanoma
SR leukemia = system: SR leukemia
HOP-62 NSCLC = system: HOP-62 NSCLC
TK-10 renal = system: TK-10 renal
SNB-19 CNS = system: SNB-19 CNS
NCI-H522 lung = system: NCI-H522 lung
A498 renal = system: A498 renal
SW-620 colon = system: SW-620 colon
IGROV1 ovarian = system: IGROV1 ovarian
SK-MEL-5 melanoma = system: SK-MEL-5 melanoma
SNB-75 CNS = system: SNB-75 CNS
SK-MEL-2 melanoma = system: SK-MEL-2 melanoma
HCT-15 colon = system: HCT-15 colon
HT29 colon = system: HT29 colon
HCT-116 colon = system: HCT-116 colon
MDA-MB-435 = system: MDA-MB-435
K-562 leukemia = system: K-562 leukemia
COLO 205 colon = system: COLO 205 colon
MDA-MB-231 breast = system: MDA-MB-231 breast
NCI-H460 lung = system: NCI-H460 lung
SK-MEL-28 melanoma = system: SK-MEL-28 melanoma
ACHN renal = system: ACHN renal
PC-3 prostate = system: PC-3 prostate
DU-145 prostate = system: DU-145 prostate
SF-539 CNS = system: SF-539 CNS
UACC-257 melanoma = system: UACC-257 melanoma
MCF7 breast = system: MCF7 breast
OVCAR-8 ovarian = system: OVCAR-8 ovarian
HL-60(TB) leukemia = system: HL-60(TB) leukemia
HS 578T breast = system: HS 578T breast
RXF 393 renal = system: RXF 393 renal
T-47D breast = system: T-47D breast
CAKI-1 renal = system: CAKI-1 renal
A549 NSCLC = system: A549 NSCLC
SF-268 CNS = system: SF-268 CNS
OVCAR-4 ovarian = system: OVCAR-4 ovarian
KM12 colon = system: KM12 colon
UACC-62 melanoma = system: UACC-62 melanoma
M14 melanoma = system: M14 melanoma
NCI-H226 lung = system: NCI-H226 lung
786-0 renal = system: 786-0 renal
MDA-N = system: MDA-N
SF-295 CNS = system: SF-295 CNS
EKVX NSCLC = system: EKVX NSCLC
U251 CNS = system: U251 CNS
UO-31 renal = system: UO-31 renal
OVCAR-3 ovarian = system: OVCAR-3 ovarian
MOLT-4 leukemia = system: MOLT-4 leukemia
RPMI-8226 leukemia = system: RPMI-8226 leukemia
NCI/ADR-RES ovarian = system: NCI/ADR-RES ovarian
SN12C renal = system: SN12C renal
LOX IMVI melanoma = system: LOX IMVI melanoma

Measured: TGI

COC(CN(C)C(=S)Nc1cccc2ccccc12)OC
> 10 µM: all assays above

c1ccc(COC[C@H]2O[C@@H](c3ccccc3)C[C@@H](OCc3ccccc3)C2OCc2ccccc2)cc1 (stereo partly specified)
not listed: SNB-19 CNS | NCI-H522 lung | A498 renal | SK-MEL-2 melanoma | HT29 colon | HCT-116 colon | MDA-MB-435 | K-562 leukemia | NCI-H460 lung | ACHN renal | SF-539 CNS | UACC-257 melanoma | HL-60(TB) leukemia | HS 578T breast | OVCAR-4 ovarian | NCI-H226 lung | U251 CNS | UO-31 renal | OVCAR-3 ovarian | NCI/ADR-RES ovarian | LOX IMVI melanoma
> 10 µM: all other assays above
